# Test results reported in article PMC4893612 (Scientific Reports, 2016).
# What was measured:
# UCHL5 [1] = target: T1, UCHL5 (Homo sapiens, UniProt Q9Y5K5); experiment: SPR binding to recombinant UCHL5, NTA chip; settings: protein from ProSpec, read-out: UCHL5(P) KD
# T1 sequence (Q9Y5K5 1-329): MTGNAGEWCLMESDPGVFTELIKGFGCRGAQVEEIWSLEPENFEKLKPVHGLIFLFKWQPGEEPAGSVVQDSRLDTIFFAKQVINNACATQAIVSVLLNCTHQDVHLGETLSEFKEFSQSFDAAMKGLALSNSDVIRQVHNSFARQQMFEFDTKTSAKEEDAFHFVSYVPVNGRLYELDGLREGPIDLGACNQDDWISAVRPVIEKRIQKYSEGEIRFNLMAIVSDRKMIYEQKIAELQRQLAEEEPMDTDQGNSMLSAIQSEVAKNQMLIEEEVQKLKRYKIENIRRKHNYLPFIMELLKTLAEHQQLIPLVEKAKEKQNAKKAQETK
# Excerpt: (§1) A BIACORE T200 was used for characterization of the interaction between compounds and USP14, UCHL5 and 26S proteasome. The standard BIACORE protocols were used for NTA chip (Ni/His-tag immobilization) and CM7 chip for compound interaction studies with slight modification described below. The x6 his-tagged USP14 and UCHL5 proteins were coupled to a Series S NTA BIACORE sensor chip in the BIACORE T200 using the his-tags for adherence of the proteins to the surface and an amine coupling procedure for covalent attachment to the chip surface. NTA chip was cleaned using three 500 μM EDTA injections followed by an injection of 500 μM Ni^2+ and activation of the chip surface with EDC/NHS injection according to BIACORE standard methods. Each chip has four separate areas, which were handled separately during the immobilization procedure. Area 1 was used as blank reference surface, area 2–4 was coupled with investigated recombinant proteins or complexes. Proteins were diluted in running buffer (10 mM HEPES, 150 mM NaCl, 0,005% Tween 20) to typically 10 μg/ml before injection(1 mL) over the prepared surfaces. […] The immobilization procedure was followed by injections of compound concentration series of VLX1570. […] Rmax and KD were calculated using Langmuir binding isotherms as provided in the Biacore software.
# 26S proteasome = 26S proteasome (Homo sapiens, UniProt P54578+Q9Y5K5); experiment: SPR binding to 26S proteasomes, CM7 chip
# 26S proteasome, sequence (P54578 whole entry, one chain of several): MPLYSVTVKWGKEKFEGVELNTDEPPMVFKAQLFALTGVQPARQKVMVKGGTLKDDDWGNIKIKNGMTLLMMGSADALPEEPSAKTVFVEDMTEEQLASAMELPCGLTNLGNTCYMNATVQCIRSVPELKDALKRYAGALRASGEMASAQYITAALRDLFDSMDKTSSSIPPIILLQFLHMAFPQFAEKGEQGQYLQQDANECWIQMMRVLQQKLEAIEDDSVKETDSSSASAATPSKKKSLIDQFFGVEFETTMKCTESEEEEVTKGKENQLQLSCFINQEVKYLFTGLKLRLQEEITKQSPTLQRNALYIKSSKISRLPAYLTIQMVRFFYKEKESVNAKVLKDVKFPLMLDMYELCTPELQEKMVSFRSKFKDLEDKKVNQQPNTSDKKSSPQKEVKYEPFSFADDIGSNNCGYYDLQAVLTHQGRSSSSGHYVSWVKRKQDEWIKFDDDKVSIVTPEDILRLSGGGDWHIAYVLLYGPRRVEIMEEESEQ
# 26S proteasome, sequence (Q13200 whole entry partner, one chain of several): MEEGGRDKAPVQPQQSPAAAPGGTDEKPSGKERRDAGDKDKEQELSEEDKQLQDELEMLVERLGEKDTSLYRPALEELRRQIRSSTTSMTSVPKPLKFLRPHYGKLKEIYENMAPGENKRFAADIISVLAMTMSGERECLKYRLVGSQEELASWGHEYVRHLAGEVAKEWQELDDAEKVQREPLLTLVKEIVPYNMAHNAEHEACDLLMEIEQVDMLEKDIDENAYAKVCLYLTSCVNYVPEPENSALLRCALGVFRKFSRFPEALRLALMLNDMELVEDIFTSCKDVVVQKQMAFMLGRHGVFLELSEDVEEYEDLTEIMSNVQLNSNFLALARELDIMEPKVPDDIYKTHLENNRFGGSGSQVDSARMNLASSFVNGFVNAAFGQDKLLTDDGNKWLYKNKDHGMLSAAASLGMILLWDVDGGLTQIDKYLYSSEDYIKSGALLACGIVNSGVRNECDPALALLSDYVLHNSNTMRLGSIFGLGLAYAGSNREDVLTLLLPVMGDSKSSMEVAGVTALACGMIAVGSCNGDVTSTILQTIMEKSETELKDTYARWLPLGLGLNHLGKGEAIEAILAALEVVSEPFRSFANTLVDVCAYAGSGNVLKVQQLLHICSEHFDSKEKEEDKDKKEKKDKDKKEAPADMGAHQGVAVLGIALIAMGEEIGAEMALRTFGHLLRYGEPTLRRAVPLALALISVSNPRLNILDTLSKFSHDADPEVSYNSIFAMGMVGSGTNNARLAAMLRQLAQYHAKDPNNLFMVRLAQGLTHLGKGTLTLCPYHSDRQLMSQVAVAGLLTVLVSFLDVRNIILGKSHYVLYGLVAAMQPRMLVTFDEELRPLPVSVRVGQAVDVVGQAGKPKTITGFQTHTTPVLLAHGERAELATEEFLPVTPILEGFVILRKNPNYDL
# Excerpt: as §1
# USP5 = target: T2, USP5 (Homo sapiens, UniProt P45974); experiment: SPR binding to USP5; settings: data not shown
# T2 sequence (P45974 1-858): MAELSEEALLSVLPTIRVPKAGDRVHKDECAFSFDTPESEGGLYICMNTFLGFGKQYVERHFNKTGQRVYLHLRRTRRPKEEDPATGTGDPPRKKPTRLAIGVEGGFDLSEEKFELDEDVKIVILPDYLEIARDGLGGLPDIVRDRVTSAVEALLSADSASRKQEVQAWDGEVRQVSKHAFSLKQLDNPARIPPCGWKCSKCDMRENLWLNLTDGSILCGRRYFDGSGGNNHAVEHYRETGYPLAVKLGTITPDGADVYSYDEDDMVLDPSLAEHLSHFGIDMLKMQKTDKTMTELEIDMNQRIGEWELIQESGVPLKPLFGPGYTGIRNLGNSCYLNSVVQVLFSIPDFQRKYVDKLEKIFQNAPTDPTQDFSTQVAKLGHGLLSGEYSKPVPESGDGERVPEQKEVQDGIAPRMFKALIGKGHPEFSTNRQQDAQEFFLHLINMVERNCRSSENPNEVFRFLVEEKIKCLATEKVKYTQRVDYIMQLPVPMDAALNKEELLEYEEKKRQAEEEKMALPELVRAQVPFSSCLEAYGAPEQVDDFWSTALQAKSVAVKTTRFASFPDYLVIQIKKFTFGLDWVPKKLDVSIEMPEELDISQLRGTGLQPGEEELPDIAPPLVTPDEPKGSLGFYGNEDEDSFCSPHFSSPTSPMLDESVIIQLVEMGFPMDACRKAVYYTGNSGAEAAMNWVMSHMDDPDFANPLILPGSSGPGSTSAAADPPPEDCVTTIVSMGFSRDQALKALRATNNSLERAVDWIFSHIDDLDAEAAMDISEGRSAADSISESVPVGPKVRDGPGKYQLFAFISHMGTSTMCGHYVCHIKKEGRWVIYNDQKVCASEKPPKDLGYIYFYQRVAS
# UCHL5 [2] = target: T3, UCHL5 (Homo sapiens, UniProt Q9Y5K5); experiment: HA-Ub-VS active-site labeling of purified 19S, UCHL5; assay type: biochemical; settings: purified 19S RP; compared with USP14
# T3 construct: purchased Boston Biochem E-366
# Method: (§2) Cell extract proteins were resolved by Tris-Acetate PAGE gels (Invitrogen, Carlsbad, CA) and transferred onto a polyvinylidene difluoride (PVDF) membrane for western blotting. For Ub-VS labeling, we lysed cell pellets from control or treated cells with buffer (50 mM HEPES pH 7.4, 250 mM sucrose, 10 mM MgCl2, 2 mM ATP, 1 mM DTT and 1%NP-40) on ice for 30 min and removed debris by centrifugation. We labeled 25 μg of protein with 1 μM Ub-VS for 30 min at 37 °C. We resolved samples by SDS-PAGE and performed immunoblotting. For HA-Ub-VS labeling, we pretreated purified 19S (5 nM) with DMSO or 2.5, 5, 10, 15 or 25μM 1570 for 10 min at room temperature, which followed with labeling with 1 μM HA-Ub-VS for 30 min at 37 °C and immunoblotting.
# [3] = tested on: 26S proteasome and immunoproteasome; experiment: Proteasome and immunoproteasome proteolytic activity in OPM-2 cells; assay type: cell-based, human; settings: 0.5 μM, 3 hours
# OPM-2 cells = experiment: 3H-VLX1570 retention after wash-out in OPM-2 cells; assay type: cell-based, human; settings: 1 hour exposure, 17 hours in drug-free medium
# MM cells = experiment: Immunoblotting of polyubiquitinated proteins in MM cells; assay type: cell-based, human; settings: 0.5 μM, 6 or 18 h
# Method: as §2
# non-proteasomal DUBs = tested on: non-proteasomal DUBs; set-up: method as in PMID 25854145; settings: cited from earlier work
# USP14 = USP14 (Homo sapiens, UniProt P54578); experiment: HA-Ub-VS active-site labeling of purified 19S, USP14; assay type: biochemical; set-up: purchased Boston Biochem E-366; settings: purified 19S RP; 2.5 μM
# Method: as §2
# OPM-Bz^R cells = experiment: 3H-VLX1570 cellular uptake, OPM-Bz^R versus parental cells; settings: OPM-Bz^R cells compared to parental cells
# UCHL5 [4] = target: T1, UCHL5; experiment: Ub-VS labeling of lysates of exposed OPM-2 cells, UCHL5; assay type: cell-based; set-up: endogenous in cells; host or cells: OPM-2 multiple myeloma cells; settings: 0.5 μM, 3 hours
# Method: as §2
structure (smiles),measurement,setting,value
C=CC(=O)N1CC/C(=C\c2ccc(F)c([N+](=O)[O-])c2)C(=O)/C(=C/c2ccc(F)c([N+](=O)[O-])c2)C1 [VLX1570],Kd,UCHL5 [1],14 µM
same,VLX1570 binding Relative RU × 100 +/− S.D.,26S proteasome; immobilised 26S proteasome,0.21 ± 0.09
same,VLX1570 binding Relative RU × 100 +/− S.D.,26S proteasome; immobilised 26S proteasome pre-incubated with Ub-VS,0.04 ± 0.01
same,saturable binding to USP5,USP5,No saturable binding
same,inhibition of UCHL5 (Ub-VS labeling),UCHL5 [2],required higher drug concentrations
same,"chymotryptic, tryptic and caspase-like activity of 26S proteasome and chymotryptic activity of immunoproteasome",[3],no change
same,drug associated with the cells after wash-out,OPM-2 cells,Approximately 70%
same,accumulation of polyubiquitinated proteins,MM cells,polyubiquitinated proteins accumulated
same,inhibition of a panel of non-proteasomal DUBs,non-proteasomal DUBs,not inhibiting
same,inhibition of USP14 activity (Ub-VS labeling),USP14,strongly inhibited
same,cellular uptake of radiolabeled drug,OPM-Bz^R cells,decreased uptake
same,UCHL5 inhibition in exposed cells,UCHL5 [4],weak in comparison
